Laboratory results from US8022178B2, “Modified self-assembling peptides” (Massachusetts Institute of Technology, priority 2006, dated 2011).

Tested on: chick Chorioallantoic Membrane
Experiment: Chorioallantoic Membrane (CAM) assay of angiogenesis
Format: in vivo, chicken
Settings: hydrogel placed Day 8, histology Day 12, FIG. 30
Protocol: In vivo study of angiogenesis was performed using Chorioallantoic Membrane (CAM) assay. At Day 8 of fertilized chicken egg incubation, hydrogels of 10 mm diameter with 1 mm thickness were transferred to chick Chorioallantoic Membrane. The hydrogels were selected from Table 19 and gels were formed before the transfer. On Day 12, CAMs were collected for histology. The angiogenesis inside and below the hydrogel were evaluated by histological cross section.

Ac(RADA)4-CONH2
angiogenesis inside and below the hydrogel: no angiogenesis both inside and below the hydrogel
